Test results reported in ChEMBL document CHEMBL1201862, “PubChem BioAssay data set” (2004).
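Cells were grown in 96-well plates and exposed to each compound for 48 hours at five concentrations; endpoints were interpolated linearly between bracketing concentrations, or set to the highest concentration if not reached. GI50 marks 50% less growth.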 Calls of active or inactive are those of the source. Rule as the data show it: active = GI50 up to about 1.1 µM and inactive = higher.

Tests used:
Assay in all cases: NCI tumour cell line growth inhibition, 48 h
[1] = test system: T47D
[2] = test system: MCF7
[3] = test system: TK-10
[4] = test system: A549
[5] = test system: NCI-H460
[6] = test system: HCC 2998
[7] = test system: SN12C
[8] = test system: HOP-62
[9] = test system: SNB-19
[10] = test system: SF-268
[11] = test system: SK-MEL-5
[12] = test system: KM12
[13] = test system: 786-0
[14] = test system: HCT-15
[15] = test system: HOP-92
[16] = test system: SF-539
[17] = test system: EKVX
[18] = test system: Hs-578T
[19] = test system: RPMI-8226
[20] = test system: UACC-62
[21] = test system: CCRF-CEM
[22] = test system: SW-620
[23] = test system: NCI-H226
[24] = test system: MDA-MB-231
[25] = test system: OVCAR-8
[26] = test system: OVCAR-4
[27] = test system: M14
[28] = test system: COLO 205
[29] = test system: HCT-116
[30] = test system: RXF 393
[31] = test system: SF-295
[32] = test system: NCI/ADR-RES
[33] = test system: OVCAR-3
[34] = test system: SR
[35] = test system: OVCAR-5
[36] = test system: MOLT-4
[37] = test system: PC-3
[38] = test system: BT-549
[39] = test system: CAKI-1
[40] = test system: K562
[41] = test system: MDA-N
[42] = test system: Malme-3M
[43] = test system: ACHN
[44] = test system: UACC-257
[45] = test system: NCI-H522
[46] = test system: SK-OV-3
[47] = test system: HT-29
[48] = test system: UO-31
[49] = test system: SK-MEL-2
[50] = test system: MDA-MB-435
[51] = test system: NCI-H23
[52] = test system: IGROV-1
[53] = test system: U-251
[54] = test system: SNB-75
[55] = test system: LOX IMVI
[56] = test system: HL-60
[57] = test system: DU-145
[58] = test system: SK-MEL-28
[59] = test system: A498

CCc1n[nH]c(=O)n1CCCCCCCCn1c(CC)n[nH]c1=O
GI50 [1]: > 100 µM (inactive)
GI50 [2]: > 100 µM (inactive)
GI50 [3]: > 100 µM (inactive)
GI50 [4]: > 100 µM (inactive)
GI50 [5]: > 100 µM (inactive)
GI50 [6]: > 100 µM (inactive)
GI50 [7]: > 100 µM (inactive)
GI50 [8]: > 100 µM (inactive)
GI50 [9]: > 100 µM (inactive)
GI50 [10]: > 100 µM (inactive)
GI50 [11]: > 100 µM (inactive)
GI50 [12]: > 100 µM (inactive)
GI50 [13]: > 100 µM (inactive)
GI50 [14]: > 100 µM
GI50 [15]: > 100 µM (inactive)
GI50 [16]: > 100 µM (inactive)
GI50 [17]: > 100 µM (inactive)
GI50 [18]: > 100 µM (inactive)
GI50 [19]: > 100 µM (inactive)
GI50 [20]: > 100 µM (inactive)
GI50 [21]: > 100 µM (inactive)
GI50 [22]: > 100 µM (inactive)
GI50 [23]: > 100 µM (inactive)
GI50 [24]: > 100 µM (inactive)
GI50 [25]: > 100 µM (inactive)
GI50 [26]: > 100 µM (inactive)
GI50 [27]: > 100 µM (inactive)
GI50 [28]: > 100 µM (inactive)
GI50 [29]: > 100 µM (inactive)
GI50 [30]: > 100 µM (inactive)
GI50 [31]: > 100 µM (inactive)
GI50 [32]: > 100 µM (inactive)
GI50 [33]: > 100 µM (inactive)
GI50 [34]: > 100 µM (inactive)
GI50 [35]: > 100 µM (inactive)
GI50 [36]: > 100 µM (inactive)
GI50 [37]: > 100 µM (inactive)
GI50 [38]: > 100 µM (inactive)
GI50 [39]: > 100 µM (inactive)
GI50 [40]: > 100 µM (inactive)
GI50 [41]: > 100 µM (inactive)
GI50 [42]: > 100 µM (inactive)
GI50 [43]: > 100 µM (inactive)
GI50 [44]: > 100 µM (inactive)
GI50 [45]: > 100 µM (inactive)
GI50 [46]: > 100 µM (inactive)
GI50 [47]: > 100 µM (inactive)
GI50 [48]: > 100 µM (inactive)
GI50 [49]: > 100 µM (inactive)
GI50 [50]: > 100 µM (inactive)
GI50 [51]: > 100 µM (inactive)
GI50 [52]: > 100 µM (inactive)
GI50 [53]: > 100 µM (inactive)
GI50 [54]: > 100 µM (inactive)
GI50 [55]: > 100 µM (inactive)

COc1ccc(C2=Cc3nc2c(-c2ccccc2)c2ccc([nH]2)c(-c2ccccc2)c2nc(c(-c4ccccc4)c4ccc([nH]4)c3-c3ccccc3)C=C2)cc1
GI50 [1]: > 100 µM (inactive)
GI50 [2]: > 100 µM (inactive)
GI50 [3]: > 100 µM (inactive)
GI50 [4]: > 100 µM (inactive)
GI50 [5]: > 100 µM (inactive)
GI50 [6]: > 100 µM (inactive)
GI50 [7]: > 100 µM (inactive)
GI50 [8]: > 100 µM (inactive)
GI50 [56]: > 100 µM (inactive)
GI50 [9]: 48.2 µM (inactive)
GI50 [10]: 51.4 µM (inactive)
GI50 [11]: > 100 µM (inactive)
GI50 [12]: > 100 µM (inactive)
GI50 [13]: > 100 µM (inactive)
GI50 [14]: > 100 µM
GI50 [15]: 35.2 µM (inactive)
GI50 [16]: > 100 µM (inactive)
GI50 [17]: > 100 µM (inactive)
GI50 [18]: > 100 µM (inactive)
GI50 [20]: > 100 µM (inactive)
GI50 [21]: > 100 µM (inactive)
GI50 [22]: > 100 µM (inactive)
GI50 [23]: > 100 µM (inactive)
GI50 [24]: > 100 µM (inactive)
GI50 [25]: > 100 µM (inactive)
GI50 [26]: > 100 µM (inactive)
GI50 [27]: > 100 µM (inactive)
GI50 [28]: > 100 µM (inactive)
GI50 [29]: > 100 µM (inactive)
GI50 [30]: > 100 µM (inactive)
GI50 [31]: > 100 µM (inactive)
GI50 [33]: > 100 µM (inactive)
GI50 [34]: > 100 µM (inactive)
GI50 [35]: > 100 µM (inactive)
GI50 [57]: > 100 µM (inactive)
GI50 [58]: > 100 µM (inactive)
GI50 [36]: > 100 µM (inactive)
GI50 [37]: > 100 µM (inactive)
GI50 [38]: > 100 µM (inactive)
GI50 [39]: > 100 µM (inactive)
GI50 [40]: > 100 µM (inactive)
GI50 [41]: > 100 µM (inactive)
GI50 [59]: > 100 µM (inactive)
GI50 [42]: > 100 µM (inactive)
GI50 [43]: > 100 µM (inactive)
GI50 [46]: > 100 µM (inactive)
GI50 [47]: > 100 µM (inactive)
GI50 [48]: > 100 µM (inactive)
GI50 [49]: > 100 µM (inactive)
GI50 [50]: > 100 µM (inactive)
GI50 [51]: > 100 µM (inactive)
GI50 [52]: > 100 µM (inactive)
GI50 [53]: 30.5 µM (inactive)
GI50 [54]: 25.2 µM (inactive)
GI50 [55]: > 100 µM (inactive)

O=c1[nH]c(NCc2ccncc2)nc2[nH]cnc12
GI50 [1]: > 100 µM (inactive)
GI50 [2]: > 100 µM (inactive)
GI50 [3]: > 100 µM (inactive)
GI50 [4]: > 100 µM (inactive)
GI50 [5]: > 100 µM (inactive)
GI50 [6]: > 100 µM (inactive)
GI50 [7]: > 100 µM (inactive)
GI50 [8]: > 100 µM (inactive)
GI50 [9]: > 100 µM (inactive)
GI50 [10]: > 100 µM (inactive)
GI50 [11]: > 100 µM (inactive)
GI50 [12]: > 100 µM (inactive)
GI50 [13]: > 100 µM (inactive)
GI50 [14]: > 100 µM
GI50 [15]: > 100 µM (inactive)
GI50 [17]: > 100 µM (inactive)
GI50 [18]: > 100 µM (inactive)
GI50 [19]: > 100 µM (inactive)
GI50 [20]: > 100 µM (inactive)
GI50 [21]: > 100 µM (inactive)
GI50 [22]: > 100 µM (inactive)
GI50 [23]: > 100 µM (inactive)
GI50 [24]: > 100 µM (inactive)
GI50 [25]: > 100 µM (inactive)
GI50 [26]: > 100 µM (inactive)
GI50 [27]: > 100 µM (inactive)
GI50 [28]: > 100 µM (inactive)
GI50 [29]: > 100 µM (inactive)
GI50 [30]: > 100 µM (inactive)
GI50 [31]: > 100 µM (inactive)
GI50 [32]: > 100 µM (inactive)
GI50 [33]: > 100 µM (inactive)
GI50 [35]: > 100 µM (inactive)
GI50 [57]: > 100 µM (inactive)
GI50 [36]: > 100 µM (inactive)
GI50 [37]: > 100 µM (inactive)
GI50 [38]: > 100 µM (inactive)
GI50 [39]: > 100 µM (inactive)
GI50 [40]: > 100 µM (inactive)
GI50 [41]: > 100 µM (inactive)
GI50 [42]: > 100 µM (inactive)
GI50 [43]: > 100 µM (inactive)
GI50 [44]: > 100 µM (inactive)
GI50 [45]: > 100 µM (inactive)
GI50 [46]: > 100 µM (inactive)
GI50 [47]: > 100 µM (inactive)
GI50 [48]: > 100 µM (inactive)
GI50 [49]: > 100 µM (inactive)
GI50 [50]: > 100 µM (inactive)
GI50 [51]: > 100 µM (inactive)
GI50 [52]: > 100 µM (inactive)
GI50 [53]: > 100 µM (inactive)
GI50 [54]: > 100 µM (inactive)
GI50 [55]: > 100 µM (inactive)
